In one assay the test system is Spodoptera littoralis. Kind of assay: Antifeedant activity against fifth instar larvae of Spodoptera littoralis fed on compound-treated lettuce leaf at 10 ug/cm'2 by leaf-disk method. Format: functional. Further details: unit not given here.
In the next assay the test system is Artemia salina. Kind of assay: Toxicity against Artemia salina (brine shrimp) after 24 hr. Format: functional.

Values after ≈ are worked out from the molar mass of the structure shown.

For `COc1cc(O)c2c(=O)c(O)c(-c3ccc(O)c(O)c3)oc2c1` [RHAMNETIN], the FR50 in the assay on Spodoptera littoralis worked out at 71.

One may read the LC50 as the concentration that kills 50% of the test population. Regarding `C=C(C)c1cc2cc(C(C)=O)c(O)cc2o1` [EUPARIN], the FR50 with Spodoptera littoralis turned out to be 0.42. This molecule also had an LC50 with Artemia salina of 58.9 µg/mL (≈ 272 µM).

In the assay on Spodoptera littoralis, `CC(C)=CCOc1cc2oc(=O)ccc2cc1O` [PRENYLETIN] registered an FR50 of 1.06. In addition, the LC50 in the assay on Artemia salina is 3.8 µg/mL (≈ 15.4 µM).

In the assay on Spodoptera littoralis, `COc1cc2ccc(=O)oc2c(O)c1OCC=C(C)C` [CAPENSIN] gave an FR50 of 1.04. Moreover, the 50% lethal concentration (LC50) with Artemia salina was found to be 52.5 µg/mL (≈ 190 µM).

Molecule `COc1cc2ccc(=O)oc2cc1OCC=C(C)C` [PRENYLETIN 6-METHYL ETHER] gave an FR50 in the assay with Spodoptera littoralis of 0.43. The same molecule registered an LC50 in the assay on Artemia salina of 17.6 µg/mL (≈ 67.6 µM).

In the assay with Spodoptera littoralis, `CC(=O)c1cc2c(cc1O)OC(C)(C)C=C2` [DEMETHYLENCECALIN] gave an FR50 of 0.4. The same molecule displayed an LC50 in the assay on Artemia salina of 17.6 µg/mL (≈ 80.6 µM).

Regarding `COc1cc2c(cc1C(C)=O)C=CC(C)(C)O2` [ENCECALIN], in the assay on Spodoptera littoralis, the FR50 is 0.08. The 50% lethal concentration (LC50) in the assay with Artemia salina is 0.9 µg/mL (≈ 3.87 µM).

In the assay on Spodoptera littoralis, `CC(C)=CCc1cc(/C=C/C(=O)O)ccc1O` [DRUPANIN] returned an FR50 of 78. In the assay on Artemia salina, this molecule registered an LC50 of 104 µg/mL (≈ 449 µM).

Consider `COC(=O)/C=C/c1ccc(OC(C)=O)c(C/C=C(\C)COC(C)=O)c1`, for which, in the assay on Artemia salina, the LC50 worked out at 39.8 µg/mL (≈ 115 µM).

The values are drawn from ChEMBL document CHEMBL3044768, “Chemistry, toxicity and antifeedant activity of the resin of Flourensia thurifera” (1997).
